Measurements taken from patent US20230085307A1, “PYRIDAZINONE COMPOUND AND HERBICIDE” (NISSAN CHEMICAL CORPORATION, priority 2019, published 2023).

Legend:
late watergrass = experiment: Test Example 1: herbicidal activity, application before weed generation under submerged conditions (Table 16, symbol A); type: in vivo, late watergrass (Echinochloa oryzicola); conditions: amount of applied herbicide 320 g/ha
In short: (§1)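 Alluvial soil was flooded to 4 cm depth, weed seeds were sown mixed and 2.5-leaf rice seedlings were transplanted. On sowing day, the compound's emulsion, diluted in water to a set dose, was applied to the water surface. Plants grew at 25–30 °C and were scored 0–5 after three weeks.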

blackgrass [1] = experiment: Test Example 4: herbicidal effect by soil treatment (Table 19, symbol J); type: in vivo, blackgrass (Alopecurus myosuroides); conditions: amount of applied herbicide 320 g/ha
In short: (§2)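 Step 1: sow seeds in sterilized diluvial soil, cover ~1.5 cm. Step 2: spray diluted emulsion onto soil surface at predetermined rate. Step 3: greenhouse, 25–30° C, three weeks. Step 4: grade effect on each plant by earlier criteria.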

redroot pigweed [2] = experiment: Test Example 5: herbicidal effect by foliage application, plastic box (Table 20, symbol N); type: in vivo, redroot pigweed (Amaranthus retroflexus); conditions: amount of applied herbicide 320 g/ha; foliage application after 14-day growth; evaluated three weeks after application
In short: (§3)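 Foliar spray test: emulsion formulation diluted in water to a set application rate, sprayed onto 14-day-old plants raised in diluvial soil at 25° C to 30° C under glass. Both herbicidal effect and crop effect rated visually three weeks later.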

chickweed [3] = experiment: Test Example 5: herbicidal effect by foliage application, plastic box (Table 20, symbol P); type: in vivo, common chickweed (Stellaria media); conditions: amount of applied herbicide 320 g/ha; foliage application after 14-day growth; evaluated three weeks after application
In short: as §3

blackgrass [4] = experiment: Test Example 5: herbicidal effect by foliage application, plastic box (Table 20, symbol J); type: in vivo, blackgrass (Alopecurus myosuroides); conditions: amount of applied herbicide 320 g/ha; foliage application after 14-day growth; evaluated three weeks after application
In short: as §3

Japanese bulrush = experiment: Test Example 1: herbicidal activity, application before weed generation under submerged conditions (Table 16, symbol B); type: in vivo, Japanese bulrush (Schoenoplectus juncoides); conditions: amount of applied herbicide 320 g/ha
In short: as §1

lambsquarters [5] = experiment: Test Example 5: herbicidal effect by foliage application, plastic box (Table 20, symbol O); type: in vivo, lambsquarters (Chenopodium album); conditions: amount of applied herbicide 320 g/ha; foliage application after 14-day growth; evaluated three weeks after application
In short: as §3

green foxtail [6] = experiment: Test Example 4: herbicidal effect by soil treatment (Table 19, symbol G); type: in vivo, green foxtail (Setaria viridis); conditions: amount of applied herbicide 320 g/ha
In short: as §2

persian speedwell [7] = experiment: Test Example 4: herbicidal effect by soil treatment (Table 19, symbol R); type: in vivo, Persian speedwell (Veronica persica); conditions: amount of applied herbicide 320 g/ha
In short: as §2

redroot pigweed [8] = experiment: Test Example 4: herbicidal effect by soil treatment (Table 19, symbol N); type: in vivo, redroot pigweed (Amaranthus retroflexus); conditions: amount of applied herbicide 320 g/ha
In short: as §2

barnyard grass [9] = experiment: Test Example 4: herbicidal effect by soil treatment (Table 19, symbol H); type: in vivo, barnyard grass (Echinochloa crus-galli); conditions: amount of applied herbicide 320 g/ha
In short: as §2

wild oat [10] = experiment: Test Example 4: herbicidal effect by soil treatment (Table 19, symbol I); type: in vivo, wild oat (Avena fatua); conditions: amount of applied herbicide 320 g/ha
In short: as §2

oval-leafed pondweed = experiment: Test Example 1: herbicidal activity, application before weed generation under submerged conditions (Table 16, symbol C); type: in vivo, oval-leafed pondweed (Monochoria vaginalis); conditions: amount of applied herbicide 320 g/ha
In short: as §1

persian speedwell [11] = experiment: Test Example 5: herbicidal effect by foliage application, plastic box (Table 20, symbol R); type: in vivo, Persian speedwell (Veronica persica); conditions: amount of applied herbicide 320 g/ha; foliage application after 14-day growth; evaluated three weeks after application
In short: as §3

lambsquarters [12] = experiment: Test Example 4: herbicidal effect by soil treatment (Table 19, symbol O); type: in vivo, lambsquarters (Chenopodium album); conditions: amount of applied herbicide 320 g/ha
In short: as §2

barnyard grass [13] = experiment: Test Example 3: herbicidal effect by foliage application, Wagner pot (Table 18, symbol H); type: in vivo, barnyard grass (Echinochloa crus-galli); conditions: 320 g/ha
In short: (§4)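 Plants were sown in alluvial soil held under 0.1–0.5 cm standing water and grown 14 days in a greenhouse at 25–30 °C. An emulsifiable formulation, water-diluted to the set dose, was then sprayed onto the foliage, and effects were scored three weeks later using previously defined criteria.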

Italian ryegrass [14] = experiment: Test Example 5: herbicidal effect by foliage application, plastic box (Table 20, symbol K); type: in vivo, Italian ryegrass (Lolium multiflorum); conditions: amount of applied herbicide 320 g/ha; foliage application after 14-day growth; evaluated three weeks after application
In short: as §3

Chinese sprangletop = experiment: Test Example 3: herbicidal effect by foliage application, Wagner pot (Table 18, symbol D); type: in vivo, chinese sprangletop (Leptochloa chinensis); conditions: 320 g/ha
In short: as §4

chickweed [15] = experiment: Test Example 4: herbicidal effect by soil treatment (Table 19, symbol P); type: in vivo, common chickweed (Stellaria media); conditions: amount of applied herbicide 320 g/ha
In short: as §2

windgrass [16] = experiment: Test Example 5: herbicidal effect by foliage application, plastic box (Table 20, symbol L); type: in vivo, windgrass (Apera spica-venti); conditions: amount of applied herbicide 320 g/ha; foliage application after 14-day growth; evaluated three weeks after application
In short: as §3

southern crabgrass [17] = experiment: Test Example 5: herbicidal effect by foliage application, plastic box (Table 20, symbol F); type: in vivo, southern crabgrass (Digitaria ciliaris); conditions: amount of applied herbicide 320 g/ha; foliage application after 14-day growth; evaluated three weeks after application
In short: as §3

Italian ryegrass [18] = experiment: Test Example 4: herbicidal effect by soil treatment (Table 19, symbol K); type: in vivo, Italian ryegrass (Lolium multiflorum); conditions: amount of applied herbicide 320 g/ha
In short: as §2

velvetleaf [19] = experiment: Test Example 4: herbicidal effect by soil treatment (Table 19, symbol M); type: in vivo, velvetleaf (Abutilon theophrasti); conditions: amount of applied herbicide 320 g/ha
In short: as §2

southern crabgrass [20] = experiment: Test Example 4: herbicidal effect by soil treatment (Table 19, symbol F); type: in vivo, southern crabgrass (Digitaria ciliaris); conditions: amount of applied herbicide 320 g/ha
In short: as §2

barnyard grass [21] = experiment: Test Example 5: herbicidal effect by foliage application, plastic box (Table 20, symbol H); type: in vivo, barnyard grass (Echinochloa crus-galli); conditions: amount of applied herbicide 320 g/ha; foliage application after 14-day growth; evaluated three weeks after application
In short: as §3

rice flat sedge = experiment: Test Example 3: herbicidal effect by foliage application, Wagner pot (Table 18, symbol E); type: in vivo, rice flat sedge (Cyperus iria); conditions: 320 g/ha
In short: as §4

wild oat [22] = experiment: Test Example 5: herbicidal effect by foliage application, plastic box (Table 20, symbol I); type: in vivo, wild oat (Avena fatua); conditions: amount of applied herbicide 320 g/ha; foliage application after 14-day growth; evaluated three weeks after application
In short: as §3

windgrass [23] = experiment: Test Example 4: herbicidal effect by soil treatment (Table 19, symbol L); type: in vivo, windgrass (Apera spica-venti); conditions: amount of applied herbicide 320 g/ha
In short: as §2

velvetleaf [24] = experiment: Test Example 5: herbicidal effect by foliage application, plastic box (Table 20, symbol M); type: in vivo, velvetleaf (Abutilon theophrasti); conditions: amount of applied herbicide 320 g/ha; foliage application after 14-day growth; evaluated three weeks after application
In short: as §3

green foxtail [25] = experiment: Test Example 5: herbicidal effect by foliage application, plastic box (Table 20, symbol G); type: in vivo, green foxtail (Setaria viridis); conditions: amount of applied herbicide 320 g/ha; foliage application after 14-day growth; evaluated three weeks after application
In short: as §3

## CCCC(=O)Oc1c(C)nn(C)c(=O)c1-c1c(-c2ccc(OC(C)C)cc2)sc2cc(F)c(F)cc12 [5-020]
Late watergrass
  Herbicidal effect, A: late watergrass: 3 (Herbicidal rate of 40% or more and less than 70%)
Blackgrass [1]
  J: blackgrass, herbicidal effect grade: 0 (Herbicidal rate of 5% or less (almost no effect))
Redroot pigweed [2]
  Herbicidal effect by foliage application, N: redroot pigweed: 4 (Herbicidal rate of 70% or more and less than 90%)
Chickweed [3]
  Herbicidal effect by foliage application, P: chickweed: 4 (Herbicidal rate of 70% or more and less than 90%)
Blackgrass [4]
  Herbicidal effect by foliage application, J: blackgrass: 0 (Herbicidal rate of 5% or less (almost no effect))
Japanese bulrush
  Herbicidal effect, B: Japanese bulrush: 0 (Herbicidal rate of 5% or less (almost no effect))
Lambsquarters [5]
  Herbicidal effect by foliage application, O: lambsquarters: 3 (Herbicidal rate of 40% or more and less than 70%)
Green foxtail [6]
  G: green foxtail, herbicidal effect grade: 0 (Herbicidal rate of 5% or less (almost no effect))
Persian speedwell [7]
  R: persian speedwell, herbicidal effect grade: 3 (Herbicidal rate of 40% or more and less than 70%)
Redroot pigweed [8]
  N: redroot pigweed, herbicidal effect grade: 3 (Herbicidal rate of 40% or more and less than 70%)
Barnyard grass [9]
  H: barnyard grass, herbicidal effect grade: 0 (Herbicidal rate of 5% or less (almost no effect))
Wild oat [10]
  I: wild oat, herbicidal effect grade: 0 (Herbicidal rate of 5% or less (almost no effect))
oval-leafed pondweed
  Herbicidal effect, C: oval-leafed pondweed: 0 (Herbicidal rate of 5% or less (almost no effect))
Persian speedwell [11]
  Herbicidal effect by foliage application, R: persian speedwell: 5 (Herbicidal rate of 90% or more (almost completely withered))
Lambsquarters [12]
  O: lambsquarters, herbicidal effect grade: 0 (Herbicidal rate of 5% or less (almost no effect))
Barnyard grass [13]
  herbicidal effect on barnyard grass (H): 3 (Herbicidal rate of 40% or more and less than 70%)
Italian ryegrass [14]
  Herbicidal effect by foliage application, K: Italian ryegrass: 0 (Herbicidal rate of 5% or less (almost no effect))
Chinese sprangletop
  herbicidal effect on Chinese sprangletop (D): 0 (Herbicidal rate of 5% or less (almost no effect))
Chickweed [15]
  P: chickweed, herbicidal effect grade: 0 (Herbicidal rate of 5% or less (almost no effect))
Windgrass [16]
  Herbicidal effect by foliage application, L: windgrass: 0 (Herbicidal rate of 5% or less (almost no effect))
Southern crabgrass [17]
  Herbicidal effect by foliage application, F: southern crabgrass: 0 (Herbicidal rate of 5% or less (almost no effect))
Italian ryegrass [18]
  K: Italian ryegrass, herbicidal effect grade: 0 (Herbicidal rate of 5% or less (almost no effect))
Velvetleaf [19]
  M: velvetleaf, herbicidal effect grade: 0 (Herbicidal rate of 5% or less (almost no effect))
Southern crabgrass [20]
  F: southern crabgrass, herbicidal effect grade: 0 (Herbicidal rate of 5% or less (almost no effect))
Barnyard grass [21]
  Herbicidal effect by foliage application, H: barnyard grass: 1 (Herbicidal rate of 5% or more and less than 20%)
Rice flat sedge
  herbicidal effect on rice flat sedge (E): 0 (Herbicidal rate of 5% or less (almost no effect))
Wild oat [22]
  Herbicidal effect by foliage application, I: wild oat: 0 (Herbicidal rate of 5% or less (almost no effect))
Windgrass [23]
  L: windgrass, herbicidal effect grade: 0 (Herbicidal rate of 5% or less (almost no effect))
Velvetleaf [24]
  Herbicidal effect by foliage application, M: velvetleaf: 2 (Herbicidal rate of 20% or more and less than 40%)
Green foxtail [25]
  Herbicidal effect by foliage application, G: green foxtail: 0 (Herbicidal rate of 5% or less (almost no effect))
